Results reported in US9536718B2, “Detection of membrane protein-therapeutic agent complexes by mass spectrometry” (Oxford University Innovation Limited, priority 2011, dated 2017).

How the values were obtained:
[1] = system: P-gp; assay: native mass spectrometry of P-gp with CsA, nucleotides and lipid (Example 2); format: binding; conditions: for number of nucleotides bound to P-gp: 1 mM MgCl2 plus 50 μM ATP or ATPγS, FIG. 2c
Procedure: His-tagged P-glycoprotein was expressed in P.pastoris and purified according to a protocol described previously (see Aller et al, supra). Lipids were purchased from Avanti Polar Lipids.
Before analysis, P-gp was buffer exchanged into 200 mM ammonium acetate pH 7 supplemented with 0.02% n-dodecyl-β-D-maltoside (DDM), using micro BioSpin-6 devices (Bio-Rad). Lipids were first prepared at 2 mM in chloroform and then diluted to 20 μM in 200 mM ammonium acetate pH 7 supplemented with 0.02% DDM. Cyclosporin was first dissolved at 8 mM in methanol and then diluted to 5-100 μM in 200 mM ammonium acetate pH 7 supplemented with 0.02% DDM. MS spectra were acquired on a Q-TOF2 (Micromass) modified for the transmission and detection of high mass complexes. Samples were introduced in the ion-source via gold-coated nanoflow capillaries. […] Micelle transmission was enhanced by increasing the Pirani pressure to 30 mbar. […] Spectra were analysed with Massign software.

[2] = system: mouse P-gp; assay: nanoelectrospray MS / IM-MS of P-gp pre-incubated with drug compounds (Example 1); format: binding; conditions: 2-3 mg/ml P-gp pre-incubated with 1-10 molar equivalents of test compound; FIG. 1
Procedure: P-glycoprotein (P-gp) was expressed and purified as reported previously (Aller et al, Science, 2009, 323, 1718-1722). In this method, P-gp was expressed in P. pastoris strain and purified as a his-tagged protein from the membranes solubilised with Triton X-100. Buffer was exchanged by washing with buffer containing 20 mM imidazole, 0.04% sodium cholate and 0.0675% β-DDM. The protein was concentrated, subjected to gel filtration chromatography and assayed for purity by SDS-PAGE.
An aliquot (30 μl) of mouse P-gp solution (9 mg/ml) in 0.07% β-DDM, 0.04% sodium cholate, 100 mM NaCl, 0.2 mM TCEP, 20 mM Hepes, pH 7.5 was buffer-exchanged using a membrane filter and diluted 3-fold in 300 mM ammonium acetate, pH 7.5. Spectra of P-gp with drug compounds were obtained by first pre-incubating 2-3 mg/ml P-gp protein with 1-10 molar equivalents of the test compound for 15 minutes to overnight prior to nanoelectrospray ionisation mass spectrometry.
Mass spectrometry measurements were carried out on a Synapt HDMS (Waters, Manchester, UK) quadrupole-S2 ion-trap-IM-MS instrument modified for transmission and detection of ions at high m/z ratios. Aliquots of complex-containing solutions (2 μL) in detergent were introduced via gold-coated nanoflow electrospray capillaries. […]

Compound | number of nucleotides bound to P-gp [1] | further results
Nc1ncnc2c1ncn2[C@@H]1O[C@H](COP(=O)(O)OP(=O)(O)OP(=O)(O)O)[C@@H](O)[C@H]1O [ATP, adenosine triphosphate] | one or two | 
Nc1ncnc2c1ncn2[C@@H]1O[C@H](COP(=O)(O)OP(=O)(O)OP(O)(O)=S)[C@@H](O)[C@H]1O [ATPγS] | one or two | 
CC(C)[C@H]1NC(=O)c2c[se]c(n2)[C@@H](C(C)C)NC(=O)c2c[se]c(n2)[C@@H](C(C)C)NC(=O)c2c[se]c1n2 [QZ59Se, RRR] |  | effect of drug binding on the mass spectrum of P-gp [2]: altered the mass spectrum of the membrane protein
cardiolipin 14:1(3)-15:1 |  | number of molecules bound to P-gp already bound to one ATP or ATPγS ([1]; first incubated with ATP or ATPγS, then with cardiolipin or CsA, FIG. 3a, b): one or two
